Consider `CCCCCCCCOc1ccc(OCc2ccc(C(=O)OC3CCC(CCC)(CCC)OC3=O)cc2)cc1` (stereo not drawn), for which the melting point (as a rule, the temperature of the solid-liquid transition) was 65 °C.
Then `CCOC(=O)C(C)c1ccc(NC(C)=O)cc1` (stereo not drawn), with 94.5 to 95.5 °C; and `CNc1cc(OCC(O)CN2C(=O)CCC2=O)ccc1[N+](=O)[O-]` (stereo not drawn), with 152 °C; and `Cc1cc(-c2[nH]c3ccc(N)cc3c2C)cc(C)c1O`, with 184 to 185 °C.
To `CC1CCC(C2=C(O)C(=O)c3ccccc3C2=O)CC1` (stereo not drawn) belongs 101 °C.
Then `CN1CCCC(c2cccc(-n3cnc4cc(C(=O)OCC5CC5)ccc43)c2)C1` (stereo not drawn), with 111 to 113 °C; and `O=c1oc(-c2ccc(Cl)cc2)cc(O)c1SCCc1ccccc1`, with 161 to 163 °C.
The molecule `COc1ccc(CCOCC(=O)O)cc1` came in with a melting point of 82 to 84 °C.
Then `O=C1NC(=O)C(c2ccsc2)O1` (stereo not drawn), with 133 to 135 °C; and `C#CCCCOc1cc(/C=C/C(=O)Nc2ccccc2C(=O)O)ccc1OC`, with 154 to 156 °C.
The molecule `O=C1CCN2C(=O)c3cccc(NC(=O)Nc4cc(O)c5ccccc5n4)c3C2C1` (stereo not drawn) came in with a melting point above 260 °C.
To `CCCCOC(=O)C1CC(n2cnc3c(N)ncnc32)C(O)C1O` (stereo not drawn) belongs 173 to 175 °C; to `COc1ccc2c(c1)c(Cc1nc(-c3ccc(F)cc3F)cs1)c(C)n2C(=O)c1ccc(Cl)cc1`, 134 to 136 °C.
The molecule `COCc1ccoc1C(=O)c1[nH]c2cc(Cl)ccc2c1CC(=O)O` came in with a melting point of 212 to 213 °C.
To `CCOC(=O)C1=Cc2cc(C(O)C(F)(F)F)ccc2OC1C(F)(F)F` (stereo not drawn) belongs 114 to 120 °C; to `C=CCn1nc(-c2sc(C(=O)NC(C)C)nc2-c2ccccc2)ccc1=O`, 166 to 167 °C; to `CCOC(=O)c1cn(C2CC2)c2cc(-c3cc(C)nc(C)c3)c(F)cc2c1=O`, 198 to 200 °C.
To `CC1(C)CN(CCN2CCN(c3cccc(Cl)c3)C2=O)C1` belongs 84 to 85 °C.
To `N#Cc1ccc(CN2C(=O)C3(COc4cc5c(cc43)OCCO5)c3ccccc32)cc1` (stereo not drawn) belongs 69 to 72 °C; to `COc1ccc(C(C)(C)C)cc1C(=O)c1cc([N+](=O)[O-])ccc1Cl`, 136 to 139 °C; to `CC1CCN(C2C3=CC(OC3=O)C3C(CC4(C)OC4C2OC(=O)c2ccccc2)OC(=O)C3C)CC1` (stereo not drawn), 234 °C.
The molecule `N#Cc1ccc(C2(Cc3ccccc3)C(=O)N(CC3CC3)Cc3cncn32)cc1` (stereo not drawn) registered a melting point of 156 to 158 °C.
With `O=C1OC(=O)c2cc3cccnc3c3cc([N+](=O)[O-])cc1c23`, the melting point was 268 to 269 °C.
In turn, `COc1cc(OC)nc(Oc2cccc3c2C(=O)OC3OCC#N)n1` (stereo not drawn) gave a melting point of 99 to 102 °C.
To `Cc1cc(-c2cc(COS(C)(=O)=O)c(=O)n(Cc3ccccc3Cl)n2)ccc1F` belongs 142 to 143 °C; to `O=C(O)CNC(=O)C(S)Cc1ccccc1` (stereo not drawn), 55 to 58 °C; to `C=CCC1(C(=O)NCCCC)c2ccccc2-c2ccccc21`, 62.5 to 64 °C.
As for `COc1ccc(Nc2ccn(-c3ccccc3)n2)cc1`, the melting point was 96 to 98 °C.
Molecule `COc1ccc(-c2nc3ncccc3o2)cc1OC1CCCC1` came in with a melting point of 108 to 109 °C.
To `CCOC(=O)C(=C1SC(=S)N(CC(=O)O)C1=O)c1csc(NC(C)=O)n1` belongs 292 to 296 °C; to `CN(C1CCCOc2ccccc21)S(C)(=O)=O` (stereo not drawn), 143 to 145 °C.
To `COc1cccc(C(O)(CC2CCNCC2)c2cccc(OC)c2)c1` belongs 111 to 113 °C.
As to `CC(C)(C)c1cc(CN(c2cccnc2)S(=O)(=O)c2cccc([N+](=O)[O-])c2)cc(C(C)(C)C)c1O`, the melting point was 99 to 107 °C.
Then `COc1ccccc1S(=O)(=O)N(C)c1cccc2cc(C3=NCC(CCO)S3)[nH]c12` (stereo not drawn), with 154 to 155 °C; and `CCCc1c(Cc2ccc(-c3ccccc3-c3nnn[nH]3)cc2)c(O)nc2ccnn12`, with 260 °C; and `CN(C)c1ccc(C(C)(C(=O)O)c2ccc(N(C)C)cc2)cc1`, with 152 to 154 °C.
Then `CC=CCn1c(C)c(C)c2cnnc(OCc3ccc(OC(F)F)cc3)c21`, with 109 to 110 °C.
To `CC(c1nc2ccccc2c(=O)n1-c1ccc(F)cc1)N(Cc1cccnc1)C(=O)Cc1ccc(C(F)(F)F)cc1` (stereo not drawn) belongs 167 °C; to `C[C@H](CO)Cn1c2ccccc2c2ccccc21`, 80 to 81 °C.
Take `CN(C)c1ccc(-c2cc(N)n[nH]2)cc1`: the melting point was in the range of 169 to 170 °C.
Regarding `Cc1ccc(C(=O)NCCCCN2CCN(C(c3ccccc3)c3ccccc3)CC2)c(O)n1`, the melting point lay within 213 to 214 °C.
Molecule `O=C(CN1CCN(CCCC(c2ccc(F)cc2)c2ccc(F)cc2)C(C(=O)O)C1)Nc1c(Cl)cccc1Cl` (stereo not drawn) registered a melting point of 204 °C.
Turning to `COc1ccc(C(=O)NCCCCCCNC(=O)c2ccc(OC)cc2)cc1`, the melting point was in the range of 177 to 178 °C.
For `OCc1ccc(-c2cccc(-c3cn([C@H]4CN5CCC4CC5)nn3)c2)s1`, the melting point came to 176 °C.
`COc1c(Cl)cc(N)cc1Cl` displayed a melting point of 80 to 81 °C.
The molecule `O=C(NC(Cc1ccccc1)C(=O)O)c1ccccc1O` (stereo not drawn) yielded a melting point of 52 to 53 °C.
Then `COc1cc(-n2c(C)c(CC(=O)O)c3cc(C)ccc32)nc(OC)n1`, with 197 to 198 °C.
To `CCCCCCOC(=O)c1nc2cc(Cl)ccc2o1` belongs 42 to 43 °C; to `O=C(O)[C@@H]1[C@H](C(=O)O)N(Cc2ccccc2)C(=O)N1Cc1ccccc1`, 173 °C; to `CS(=O)(=O)Nc1ccc(Cl)c([N+](=O)[O-])c1`, 163 °C.
Then `CON=C1CCC1N1CCC(Cc2ccc(Cl)cc2)CC1` (stereo not drawn), with 127 to 128 °C.
Molecule `COc1ccc(NS(=O)(=O)c2cc3cc(Br)ccc3oc2=O)cc1` had a melting point of 182 to 184 °C.
In the case of `NC(=NO)c1ccc(-c2ccc(N)cc2)o1`, the melting point lay in the range of 180 to 183 °C.
Then `O=C1CCC(CC(O)C(=O)OCc2ccccc2)N1` (stereo not drawn), with 95 to 96 °C; and `Cc1c(NC(=O)C(CSC(=O)C(C)C)Cc2ccccc2)cccc1C(=O)O` (stereo not drawn), with 178 to 183 °C.
The molecule `Fc1ccccc1Cn1cnc2c(Nn3ccc4ccccc43)ncnc21` came in with a melting point of 236 to 238 °C.
Consider `CCCCc1oc2ccccc2c1C(=O)c1ccc(N(CCN(CC)CC)S(=O)(=O)c2cccnc2)cc1`, for which the melting point was 141 to 146 °C.
Then `CC(C)(C)OC(=O)Nc1ccc(-c2cccc(F)c2)cc1NC(=O)CC(=O)c1cccc(-n2ccnc2)c1`, with 70 to 83 °C; and `COc1c(C)c(CO)c(OC)c2ccccc12`, with 116 to 117 °C.
Molecule `Nc1ccc(N2CCN(Cc3ccccc3)CC2)cc1C(=O)O` had a melting point of 242 °C.
Then `CCOC(=O)C1=C(COCCN=[N+]=[N-])NC(C)=C(C(=O)OC)C1c1ccccc1Cl` (stereo not drawn), with 145 to 146 °C.
Turning to `CCn1nc(C)c2nc(C)nc(NCCO)c21`, the melting point was in the range of 166 to 168 °C.
The molecule `CCOC(=O)c1ccc(-c2nnc(-c3ccccc3N)o2)cc1` came in with a melting point of 174 to 175 °C.
Then `COc1ccc2c(C(=O)Nc3ccc(CN4CCN(C)CC4)c(C(F)(F)F)c3)nsc2c1`, with 156 °C; and `COc1ccc(S(=O)(=O)Nc2ccc(N(C)C)nc2Nc2ccccc2)cc1`, with 152 to 153 °C; and `O=C1c2ccccc2C(O)(c2ccccc2)N1C1CCN(CCC(c2ccccc2)c2ccccc2)CC1` (stereo not drawn), with 150 to 153 °C.
Turning to `COC(=O)Nc1cc(Oc2ccc3c(ccn3C(=O)Nc3ccc(CN4CCN(C)CC4)c(C(F)(F)F)c3)c2)ncn1`, the melting point was in the range of 138 to 140 °C.
Molecule `CCCCc1c(CO)ccc2c(OC)cccc12` had a melting point of 100 to 102 °C.
To `NC1=Nc2ccc(OC(F)(F)F)cc2SC1` belongs 94 to 96 °C.
Then `Cc1ncc(CO)cc1OC(=O)c1cccs1`, with 59 to 61 °C; and `CC1=C(c2nc(C)no2)C(c2cccc(Cl)c2Cl)C(c2nc(C)no2)=C(C)N1`, with 227 to 229 °C.
To `COc1cc2cc(C(=O)N3CC(COS(C)(=O)=O)c4c3cc([N+](=O)[O-])c3ccccc43)[nH]c2c(OC)c1OC` (stereo not drawn) belongs 214 °C.
Molecule `COc1ccc(-c2c[nH]c(S)n2)cc1` gave a melting point of 204 °C.
To `CC(=O)OC(C)c1cccc2cc(C(C)=O)oc12` (stereo not drawn) belongs 82 to 83 °C.
`CN1Cc2c(C(N)=O)ncn2-c2ccccc2C1=O` had a melting point of 274 to 275 °C.
Consider `COc1ccc2nc(COc3ccc(CC(SC(C)=O)C(=O)O)cc3)n(C)c2c1` (stereo not drawn), for which the melting point fell in the range of 209 to 214 °C.
The molecule `COC(=O)CSc1cccc(CN)c1` returned a melting point of 72 °C.
`O=C1CCC(N2C(=O)c3ccc(CNC(=O)Nc4ccc(Cl)c(Cl)c4)cc3C2=O)C(=O)N1` (stereo not drawn) yielded a melting point of 290 to 292 °C.
The molecule `Cc1nc2c(s1)CCN(C(=O)c1ccc(NC(=O)c3ccccc3-c3ccccc3)cc1)c1ccccc1-2` had a melting point of 165 to 168 °C.
Consider `COc1cc(N)c(Cl)cc1C(=O)NCC1CCN(CCCCCCSc2ccccc2)CC1`, for which the melting point was in the range of 68 to 70 °C.
Consider `CN(C)S(=O)(=O)c1cc2c(c(C(=O)O)c1)OC(C)(C)C2`, for which the melting point fell in the range of 211 to 212 °C.
For the molecule `Cc1cc(OC/C=C(/c2ccc(Cl)cc2)c2ccc(C#CC(C)(C)C)cc2)ccc1OCC(=O)O`, the melting point was 144 to 147 °C.
To `COc1cccc(-c2cn3c(n2)CCc2ccccc2-3)c1` belongs 107 to 109 °C; to `CCCc1c(C(=O)C(C)C)c2ccc(CC(=O)O)cc2n1Cc1cc2c(cc1Cl)OCO2`, 81 to 83 °C; to `CC(C)=C1OC(=O)N(c2ccc(C)cc2)C1=O`, 136 °C.
Consider `O=c1[nH]c(CCCN2CCCC2)cc2ccccc12`, for which the melting point is 117 to 119 °C.
On to `CCc1ccc2oc(C(=O)Nc3ccc(-c4ccc(S(=O)(=O)NC(C(=O)OC)C(C)C)cc4)cc3)c(C)c2c1OC(C)C` (stereo not drawn), for which the melting point lay within 182 to 184 °C.
Then `O=C1[C@H](O)[C@@H](O)C(=O)N1Cc1ccccc1`, with 100 °C.

For the origin of these results see a melting point compilation (Tetko et al.; mined from patent text by program, amines drawn as free bases though some values may be those of a salt).
